SMILES	melting point [°C]
CNC(=O)C(Cc1ccc(OC)cc1)NC(=O)C(CC(C)C)C(CC(=O)OC)SC(C)=O (stereo not given)	118 to 135
CCn1c(Oc2ccc(F)cc2)nnc1[C@@H](C)N(C)S(=O)(=O)c1ccc(Cl)c(Cl)c1	126
COc1cccc(OC)c1-c1nc2cnncc2[nH]1	207
CNC(=O)N1CC(Oc2ccccn2)C1	165 to 168
CC12CC(N3CCCCC3)C(O)CC1CCC1C2CCC2(C)C(O)C(N3CCC4(CC3)OCCO4)CC12 (stereo not given)	183 to 185
CC(=O)Nc1ccc(C#Cc2ccc(OC3CN4CCC3CC4)nn2)cc1 (stereo not given)	170 to 175
Cc1c(N)noc1C(F)(F)C(F)(F)F	32 to 34
O=C(c1cc(Cl)ccc1NC(=O)C(Cl)(Cl)Cl)C1CCCCC1	93 to 93.5
COC(=O)C=CC(C)C1=CCC2C3CC=C4CC(OC(C)=O)CCC4(C)C3CCC12C (stereo not given)	121 to 122
COc1ccc(-c2nc(C(O)(C(F)(F)F)C(F)(F)F)[nH]c2-c2ccc(OC)cc2)cc1	144 to 146
O=S(=O)(c1ccc(Br)cc1)N1CCC1	145
FC(F)(F)c1ccc(-c2cc(C(F)(F)F)n3ncc(-c4ccncc4)c3n2)cc1C(F)(F)F	209
COC(=O)CCC(C)C(=O)N1CCC[C@H]1C(=O)O (stereo not given in full)	174 to 175
Cc1sc(N)nc1-c1ccc2c(c1)CC(=O)N2	> 250
COc1ccc(-c2nc3ncccc3o2)cc1OC1CCCC1	108 to 109
CCC1(CC)C(=O)c2cc(OCC(=O)O)c(C)c(C)c2C1=O	134 to 136
CCCCOC(=O)NCCc1ccc(OCC(O)CNC(C)C)nc1 (stereo not given)	93 to 95
Cc1nc(-c2ccc(C(F)(F)F)cc2)sc1CSc1ccc(OCC(=O)O)c2ccccc12	181 to 183
O=C(O)C(Cc1ccc(C(F)(F)F)cc1Br)C(=O)O	80 to 82
CCOC(=O)c1csnc1-c1ccc(Cl)cc1	70.5 to 71.5
Cc1nc2ccc3c(c2s1)C(=O)CC3	163 to 165
COc1c(CC#N)cccc1CC#N	58 to 59.5
CSc1ccc2ccc(Br)cc2c1	80 to 81
CCC(CC)n1nnc2c(Nc3c(C)cc(C)cc3C)nc(C)cc21	140 to 142
N#Cc1nn(-c2c(Cl)cc(C(F)(F)F)cc2Cl)c(N)c1-c1ccc(F)c(Cl)c1	197 to 198
Cc1nc(-c2cccc(F)c2)n(-c2ccc(S(N)(=O)=O)cn2)n1	195 to 196
O=c1[nH]c2ccc(-c3cc(CN4CCC(Cc5ccc(F)cc5)CC4)on3)cc2o1	237 to 244

SMILES	melting point [°C]
COCCc1nc2c(N)nc3ccccc3c2n1CC1(O)CCCCC1	189 to 191
O=C(NCc1ncc(C(F)(F)F)cc1Cl)c1ccc(Br)o1	77.8
C=C(C)Cc1cc2c(cc1O)CC(=O)N2CC	118 to 120
C#CCOc1nsc(-c2ccccc2)n1	66.9
O=C(NC1CC1)N1CCc2[nH]cnc2C1	215
CN1CCC(c2c[nH]c3ccc(O[Si](C)(C)C(C)(C)C)cc23)CC1	191 to 195
COc1ccc(-c2c(Cl)c(CN3C(=O)CCC3=O)nc3sc4c(c23)CCC(=O)C4)cc1	257 to 258
NCc1nnc(-c2ncn3c2[C@@H]2CCCN2C(=O)c2sccc2-3)o1	214 to 216
Cn1cc(-c2ccc(Cl)c(C(F)(F)F)c2)c(=O)c(C(F)(F)F)c1	164 to 165
Cc1cc(=O)n(-c2c(Cl)cc(C(F)(F)F)cc2Cl)[nH]1	174 to 175
O=C1NC(=S)SC1=Cc1ccc2c(c1)OCO2	194 to 195
O=C(Nc1nnn[nH]1)c1cnc2sc3ccc(F)cc3n2c1=O	> 300
Cc1nn(C)c(F)c1C(=O)Nc1cccc2c1C(C)CC2(C)C (stereo not given)	137
Cn1nc(-c2ccc3cc(O)ccc3c2)c2ccc(O)cc21	290 to 292
CCOC(=O)C(C#N)=CNc1ncccc1C	139 to 143
CSc1ncncc1C1c2cc(C#N)ccc2CC1(C)C (stereo not given)	157 to 158
CC(C)(O)CCOc1c(-c2ccc(S(C)(=O)=O)cc2)cnn(-c2ccc(F)cc2)c1=O	133 to 134
CC(C)CN(C=NS(=O)(=O)c1c(Cl)nc2ccc(Cl)nn12)CC(C)C	151 to 154
Cc1ccc(C(=O)C=CN(C)C)cc1C	108 to 110
CCc1cccc(C)c1N1C(=O)CCN(CC)C1=S	74 to 77
CN1C(=O)C(NC(=O)C23CC4CC(CC(C4)C2)C3)N=C(c2ccccc2)c2ccccc21 (racemic)	256 to 257
CCC(CC)n1nnc2c([N+](=O)[O-])cccc21	129 to 132
COC(=O)CSCC(NC(=O)OC(C)(C)C)c1ccc(F)cc1 (stereo not given)	61 to 62
CC#CN(C)c1nc2ccccc2s1	58 to 59
Cc1ccnc(NC(c2ccc(C(F)(F)F)cc2)c2ccc3cccnc3c2O)c1 (stereo not given)	104 to 107
NC(=NO)c1nc(Cl)c(Cl)[nH]1	270 to 275

Continued, values first:

melting point [°C]	SMILES
113 to 116	CCOC(=O)CN(CP(=O)(ONNc1ccccc1)ONNc1ccccc1)C(=O)C(F)(F)F
85.4 to 87.2	CC(C)(C)OC(=O)N1c2ccccc2CC1COc1ccc(CC2SC(=O)N(C(c3ccccc3)(c3ccccc3)c3ccccc3)C2=O)cc1 (stereo not given)
105 to 107	c1ccc(-c2nc3ccccc3o2)nc1
127 to 128	CCc1nc2c(C)cc(C)nc2n1Cc1ccc(C(Cc2ccccc2)C(C(=O)O)C(=O)O)cc1 (stereo not given)
221 to 223	O=C(O)COc1ccc(-c2c3ccccc3cc3sc4ccccc4c23)cc1
168 to 169	COC(=O)c1ccccc1NC(=O)CN1CCN(C(=O)c2ccc(OC)c(OC)c2)CC1
221 to 223	CC(=O)Nc1ncc(/C=C\c2ccc([N+](=O)[O-])cc2)s1
180 to 182	Nc1sc2c(c1C(=O)c1ccc(I)c3ccccc13)CCCC2
135	O=c1[nH]c2ccccc2n1CCCN1CCC(O)(c2ccc(F)cc2)CC1
76 to 79	CS(=O)(=O)c1ccc(C(CC2CCCC2)C(=O)Nc2ccccn2)cc1F (stereo not given)
161 to 162	Nc1ccccc1SC[C@H](NC(=O)OCc1ccccc1)C(=O)O
192 to 194	O=C(O)c1cc(=O)c2c(OCC(O)COc3ccc(Br)cc3)cccc2o1 (stereo not given)
185	CC(=O)NCCCCC(=O)OC1c2ccccc2C(=O)N1c1ccc2ccc(Cl)nc2n1 (stereo not given)
180	CN(C(=O)c1ccccc1N(CC(=O)N1CCCC(C)(C)C1)C(=O)CN1C(=O)c2ccccc2C1=O)c1ccccc1
161 to 168	C(CCc1cncn1Cc1ccccc1)=C(c1ccccc1)c1ccccc1
125 to 127	O=C(NC(=O)N1CCSC1c1ccccc1OCCN1CCN(c2cccc(F)c2)CC1)c1ccccc1 (stereo not given)
246	COc1ccc(N2C(=O)C(Oc3ccccc3)C2c2ccc(C(=O)O)cc2)cc1 (stereo not given)
121 to 122	CCOC(Cl)(Cl)C1OC(=C(Cl)Cl)c2cc(C(=O)O)ccc2O1 (stereo not given)
233 to 234	CCOc1ccc(S(=O)(=O)N(CC(=O)NN=C2C(=O)Nc3ccc(I)cc32)c2ccccc2)cc1
178 to 179	CC(C)Cn1c(C(=O)O)c(-c2ccccc2F)c2cc(OCc3ccccc3)ccc2c1=O
> 300	CC(C)(C)c1ccc(NC(=O)c2ccc(C3NOC(=O)N3)cc2)cc1 (stereo not given)
153 to 154	COc1ccc2c(c1)N(CCNC(C)=O)CC(c1ccccc1)O2 (stereo not given)
172 to 174	Cc1nc(-n2ccc(OCCC3CC3)cc2=O)sc1C(=O)NCc1ccccc1
134 to 136	COc1ccc2c(c1)c(Cc1nc(-c3ccc(F)cc3F)cs1)c(C)n2C(=O)c1ccc(Cl)cc1

melting point [°C]	SMILES
138 to 139	Cc1c(NC(=O)c2ccc(-c3ccccc3)c(F)c2)ccc2cc(CN3CCCCC3)cnc12
225 to 226	COc1cccc(Nc2nc(N)nc3[nH]c4ccccc4c23)c1
140 to 141	CN(C)CCCNC(=O)c1ccc(-c2nnc(CSCCOc3ccc(Cl)cc3Cl)o2)cc1
117 to 120	COc1ccc(C2=NN(Cc3cccnc3)C(=O)[C@H]3CC=CC[C@@H]23)cc1OC (relative stereo)
83	COC(=O)CC(=O)C=Cc1ccccc1
111 to 113	Cc1nn(-c2ccccc2)c(Nc2ccccc2)c1CC(=O)O
81 to 83	CCCCC(NC(=O)C(CC(C)C)NC(=O)c1cccc2ccccc12)C(=O)CSCc1ccco1 (stereo not given)
163	COc1ccccc1-n1nc(-c2c(-c3ccccc3)nn3ccccc23)ccc1=O
172 to 176	CCOP(=O)(CC(=O)Nc1c(C(C)C)cccc1C(C)C)NCC(c1ccccc1)c1ccccc1 (stereo not given)
98 to 99	Cc1cc(-c2ccccc2)nn1C(C)C(=O)N(C)C (stereo not given)
159 to 161	O=C(O)c1cccc(CCc2n[nH]c3c2c(=O)n(-c2ccccc2)c2ncccc32)c1
140 to 141	O=C(O)Cc1ccc2c(c1)CC(CNS(=O)(=O)c1ccccc1)C2 (stereo not given)
> 250	CC(=O)C1=C(C)NC2=C(C(=O)CCC2)C1c1cccc([N+](=O)[O-])c1 (stereo not given)
106 to 110	CC(C)(C)n1nc(Cc2ccccc2)c(C#N)c1N
180 to 182	CCCCc1oc2ccc(CO)cc2c1C(=O)c1ccc(O)cc1
265 to 268	CN1CN=C2C=C(Nc3ccc(I)cc3F)C(F)(C(N)=O)C=C21 (stereo not given)
67 to 68	N#CCCCOc1ccc(-c2nnc(CSCCOc3ccccc3)o2)cc1
87 to 88	CSC(C)(C(=O)O)c1cccc(Oc2ccccc2)c1 (stereo not given)
203 to 205	O=C(O)c1ccc(CSc2nnc(-c3ccc4c(c3)CCO4)o2)cc1
205 to 207	Cn1cc(CN2C(=O)C3(COc4cc5c(cc43)OCCO5)c3ccccc32)ccc1=O (stereo not given)
112 to 113	C#CCOc1ccc2c(c1)c(-c1ccc(C3CC3)cc1)nc(=O)n2Cc1ccccc1
254 to 255	O=C(O)C1=Cc2c(ccc3oc4ccccc4c23)OC1C(F)(F)F (stereo not given)
135 to 137	O=C1C=CN2c3ccccc3CCC2C1 (stereo not given)
